Reference: patent US20260335451A1, “SOLID ORAL DOSAGE FORMS OF ESTROGEN RECEPTOR DEGRADERS” (Arvinas Operations, Inc., priority 2023, published 2026)

Experiments:
[1] = Biopharmaceutics Classification System class; assay type: physicochemical
[2] = Preclinical exposure of epimer Compound B vs Compound A; assay type: in vivo; conditions: preclinical data; epimer formed by interconversion of Compound A
ER = biological target: T1, ER (Homo sapiens, UniProt P03372); test: ER degradation; conditions: evidence in words
T1 construct: PROTAC recruits cereblon (CRBN) E3 ligase
T1 sequence (P03372 1-595): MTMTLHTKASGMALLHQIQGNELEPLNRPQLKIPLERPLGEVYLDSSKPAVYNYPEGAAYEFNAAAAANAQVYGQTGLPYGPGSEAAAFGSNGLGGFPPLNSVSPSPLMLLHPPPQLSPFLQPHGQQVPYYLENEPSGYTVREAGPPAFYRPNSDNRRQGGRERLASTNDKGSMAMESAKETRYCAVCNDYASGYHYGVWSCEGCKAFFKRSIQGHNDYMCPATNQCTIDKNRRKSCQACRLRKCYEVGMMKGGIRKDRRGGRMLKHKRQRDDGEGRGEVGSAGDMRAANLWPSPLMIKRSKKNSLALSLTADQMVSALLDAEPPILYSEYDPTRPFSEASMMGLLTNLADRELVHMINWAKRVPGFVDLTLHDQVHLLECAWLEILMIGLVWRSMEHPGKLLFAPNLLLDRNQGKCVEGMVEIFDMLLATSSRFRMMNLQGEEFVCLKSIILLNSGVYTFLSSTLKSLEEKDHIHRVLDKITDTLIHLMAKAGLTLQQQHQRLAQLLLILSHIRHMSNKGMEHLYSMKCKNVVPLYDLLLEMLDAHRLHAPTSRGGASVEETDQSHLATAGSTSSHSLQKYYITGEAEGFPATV

SMILES | permeability (in words, BCS) [1] | solubility (in words, BCS) [1] | exposure of Compound B compared to Compound A [2] | ER degradation (ER)
O=C1CC[C@H](N2Cc3cc(N4CCN(CC5CCN(c6ccc([C@@H]7c8ccc(O)cc8CC[C@@H]7c7ccccc7)cc6)CC5)CC4)ccc3C2=O)C(=O)N1 [Compound A, (S)-3-(5-(4-((1-(4-((1R,2S)-6-hydroxy-2-phenyl-1,2,3,4-tetrahydronaphthalen-1-yl)phenyl)piperidin-4-yl)methyl)piperazin-1-yl)-1-oxoisoindolin-2-yl)piperidine-2,6-dione] | low permeability | low solubility |  | 
O=C1CC[C@@H](N2Cc3cc(N4CCN(CC5CCN(c6ccc([C@@H]7c8ccc(O)cc8CC[C@@H]7c7ccccc7)cc6)CC5)CC4)ccc3C2=O)C(=O)N1 [Compound B] |  |  | < 26% | does not degrade the ER
